Values of other authors in PMC7468272 (Acta Pharmacologica Sinica, 2019).

Test system: CBP/p300

## CO[C@H]1CC[C@H](n2c([C@@H]3CCCC(=O)N3c3ccc(F)c(F)c3)nc3cc(-c4c(C)noc4C)ccc32)CC1 [CCS1477]
  affinity for CBP/p300: single-digit nanomolar affinity
